Values after ≈ are worked out from the molar mass of the structure shown. Where two headings read alike, the source gives them in different places.
What was measured:
[1] = Stability in simulated gastric fluid; assay type: in vitro ADME; settings: 10 µM, SGF pH 1.2, over 1h, LC-MS/MS
[2] = Stability in simulated intestinal fluid; assay type: in vitro ADME; settings: 10 µM
CYP1A2 = CYP1A2 (Homo sapiens, UniProt P05177); assay: Cytochrome P450 inhibition; assay type: biochemical
CYP2A6 = CYP2A6 (Homo sapiens, UniProt P11509); assay: Cytochrome P450 inhibition; assay type: biochemical; settings: read-out: IC50 CYP2A6
CYP2A6, sequence (P11509 whole entry): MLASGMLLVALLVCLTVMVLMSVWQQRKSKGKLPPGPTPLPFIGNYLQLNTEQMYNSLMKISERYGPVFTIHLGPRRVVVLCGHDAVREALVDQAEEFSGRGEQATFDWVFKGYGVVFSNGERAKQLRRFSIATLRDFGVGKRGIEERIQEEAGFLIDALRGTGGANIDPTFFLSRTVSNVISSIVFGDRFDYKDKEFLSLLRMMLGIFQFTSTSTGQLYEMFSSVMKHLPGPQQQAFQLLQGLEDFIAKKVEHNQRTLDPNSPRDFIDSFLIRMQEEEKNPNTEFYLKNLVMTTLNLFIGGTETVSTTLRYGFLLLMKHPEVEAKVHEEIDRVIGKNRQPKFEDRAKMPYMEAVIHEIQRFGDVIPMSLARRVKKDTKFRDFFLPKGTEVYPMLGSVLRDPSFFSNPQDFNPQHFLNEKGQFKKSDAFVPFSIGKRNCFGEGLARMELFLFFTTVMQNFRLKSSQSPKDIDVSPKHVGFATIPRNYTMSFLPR

CYP2B6 = CYP2B6 (Homo sapiens, UniProt P20813); assay: Cytochrome P450 inhibition; assay type: biochemical; settings: read-out: IC50 CYP2B6
CYP2B6, sequence (P20813 whole entry): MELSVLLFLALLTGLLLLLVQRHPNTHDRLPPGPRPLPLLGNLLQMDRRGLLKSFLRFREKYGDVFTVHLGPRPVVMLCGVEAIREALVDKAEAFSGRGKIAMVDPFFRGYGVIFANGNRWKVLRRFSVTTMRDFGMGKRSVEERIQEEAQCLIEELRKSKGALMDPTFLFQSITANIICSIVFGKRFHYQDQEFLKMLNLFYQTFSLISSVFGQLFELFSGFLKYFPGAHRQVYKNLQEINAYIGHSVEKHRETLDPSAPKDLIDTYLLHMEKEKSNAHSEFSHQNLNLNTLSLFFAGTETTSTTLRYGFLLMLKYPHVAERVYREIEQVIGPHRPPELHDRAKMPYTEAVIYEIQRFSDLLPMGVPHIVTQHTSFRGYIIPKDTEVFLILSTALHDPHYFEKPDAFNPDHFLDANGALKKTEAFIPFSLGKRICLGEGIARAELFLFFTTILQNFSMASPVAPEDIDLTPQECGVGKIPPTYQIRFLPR

CYP2C8 = CYP2C8 (Homo sapiens, UniProt P10632); assay: Cytochrome P450 inhibition; assay type: biochemical; settings: read-out: IC50 CYP2C8
CYP2C8, sequence (P10632 whole entry): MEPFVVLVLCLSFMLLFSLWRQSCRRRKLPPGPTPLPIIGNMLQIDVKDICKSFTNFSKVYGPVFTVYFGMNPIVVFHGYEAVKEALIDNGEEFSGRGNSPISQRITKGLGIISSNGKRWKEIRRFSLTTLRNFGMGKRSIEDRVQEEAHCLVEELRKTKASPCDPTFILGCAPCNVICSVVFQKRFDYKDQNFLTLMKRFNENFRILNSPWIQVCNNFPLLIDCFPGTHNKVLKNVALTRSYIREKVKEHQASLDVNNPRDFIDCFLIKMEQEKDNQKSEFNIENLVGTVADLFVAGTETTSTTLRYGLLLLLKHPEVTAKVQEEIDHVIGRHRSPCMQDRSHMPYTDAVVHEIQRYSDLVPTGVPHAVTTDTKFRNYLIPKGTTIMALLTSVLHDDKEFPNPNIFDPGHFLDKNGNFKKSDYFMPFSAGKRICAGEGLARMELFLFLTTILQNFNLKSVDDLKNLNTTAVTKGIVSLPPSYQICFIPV

CYP2C9 = CYP2C9 (Homo sapiens, UniProt P11712); assay: Cytochrome P450 inhibition; assay type: biochemical; settings: read-out: IC50 CYP2C9
CYP2C9, sequence (P11712 whole entry): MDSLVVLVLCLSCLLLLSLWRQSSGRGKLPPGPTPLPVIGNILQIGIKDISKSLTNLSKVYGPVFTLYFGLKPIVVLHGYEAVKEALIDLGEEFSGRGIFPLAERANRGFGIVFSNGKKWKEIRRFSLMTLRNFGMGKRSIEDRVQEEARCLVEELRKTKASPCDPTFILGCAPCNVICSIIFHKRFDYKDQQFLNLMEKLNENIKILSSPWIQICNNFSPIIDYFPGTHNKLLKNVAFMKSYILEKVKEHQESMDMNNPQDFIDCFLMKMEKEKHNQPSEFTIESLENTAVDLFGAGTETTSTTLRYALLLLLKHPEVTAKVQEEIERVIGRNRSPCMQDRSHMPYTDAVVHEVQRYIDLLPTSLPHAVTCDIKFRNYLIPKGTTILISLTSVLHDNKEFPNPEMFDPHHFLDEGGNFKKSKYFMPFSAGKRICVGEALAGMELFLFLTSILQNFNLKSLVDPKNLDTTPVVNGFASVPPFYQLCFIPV

CYP2C19 = CYP2C19 (Homo sapiens, UniProt P33261); assay: Cytochrome P450 inhibition; assay type: biochemical; settings: read-out: IC50 CYP2C19
CYP2C19, sequence (P33261 whole entry): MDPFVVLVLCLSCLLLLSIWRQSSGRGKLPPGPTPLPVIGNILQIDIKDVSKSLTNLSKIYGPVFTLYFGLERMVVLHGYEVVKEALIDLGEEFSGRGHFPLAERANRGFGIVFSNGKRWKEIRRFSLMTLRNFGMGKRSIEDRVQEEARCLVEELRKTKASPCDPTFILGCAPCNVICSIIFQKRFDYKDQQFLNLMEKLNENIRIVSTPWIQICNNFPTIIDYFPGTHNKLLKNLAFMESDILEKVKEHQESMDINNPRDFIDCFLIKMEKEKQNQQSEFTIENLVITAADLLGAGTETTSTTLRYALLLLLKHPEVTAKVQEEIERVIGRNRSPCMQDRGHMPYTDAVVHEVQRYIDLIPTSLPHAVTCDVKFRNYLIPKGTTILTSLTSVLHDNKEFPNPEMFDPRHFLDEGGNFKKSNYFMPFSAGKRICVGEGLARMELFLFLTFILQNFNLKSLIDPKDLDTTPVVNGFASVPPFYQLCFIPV

CYP2D6 = CYP2D6 (Homo sapiens, UniProt P10635); assay: Cytochrome P450 inhibition; assay type: biochemical; settings: read-out: IC50 CYP2D6
CYP2D6, sequence (P10635 whole entry): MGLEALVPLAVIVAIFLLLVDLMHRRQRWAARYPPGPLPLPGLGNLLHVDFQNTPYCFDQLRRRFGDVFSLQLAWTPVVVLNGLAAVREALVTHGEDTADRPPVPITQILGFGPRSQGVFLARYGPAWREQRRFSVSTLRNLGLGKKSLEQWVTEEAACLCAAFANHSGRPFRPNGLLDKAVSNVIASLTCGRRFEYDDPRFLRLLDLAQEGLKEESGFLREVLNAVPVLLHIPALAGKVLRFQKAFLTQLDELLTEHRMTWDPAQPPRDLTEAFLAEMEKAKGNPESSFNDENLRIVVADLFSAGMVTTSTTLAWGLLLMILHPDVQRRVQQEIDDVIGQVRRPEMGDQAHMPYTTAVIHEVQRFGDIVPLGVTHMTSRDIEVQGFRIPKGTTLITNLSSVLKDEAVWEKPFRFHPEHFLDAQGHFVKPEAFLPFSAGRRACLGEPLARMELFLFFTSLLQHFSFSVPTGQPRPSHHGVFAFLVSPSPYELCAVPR

CYP2E1 = CYP2E1 (Homo sapiens, UniProt P05181); assay: Cytochrome P450 inhibition; assay type: biochemical; settings: read-out: IC50 CYP2E1
CYP2E1, sequence (P05181 whole entry): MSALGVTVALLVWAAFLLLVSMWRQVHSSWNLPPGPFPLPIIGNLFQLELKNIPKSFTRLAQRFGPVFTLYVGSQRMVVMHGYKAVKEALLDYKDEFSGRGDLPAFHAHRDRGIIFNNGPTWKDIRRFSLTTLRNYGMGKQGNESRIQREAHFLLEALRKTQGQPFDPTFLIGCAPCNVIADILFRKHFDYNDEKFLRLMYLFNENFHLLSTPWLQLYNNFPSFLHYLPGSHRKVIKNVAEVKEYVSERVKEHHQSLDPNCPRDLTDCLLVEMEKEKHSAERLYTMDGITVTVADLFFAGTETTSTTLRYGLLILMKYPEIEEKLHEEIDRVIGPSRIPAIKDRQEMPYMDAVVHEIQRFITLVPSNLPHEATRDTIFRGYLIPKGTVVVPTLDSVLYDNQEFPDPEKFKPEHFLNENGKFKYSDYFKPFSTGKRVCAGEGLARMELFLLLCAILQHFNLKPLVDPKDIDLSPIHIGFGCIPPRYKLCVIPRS

CYP3A4 = CYP3A4 (Homo sapiens, UniProt P08684); assay: Cytochrome P450 inhibition; assay type: biochemical; settings: read-out: IC50 CYP3A4
CYP3A4, sequence (P08684 whole entry): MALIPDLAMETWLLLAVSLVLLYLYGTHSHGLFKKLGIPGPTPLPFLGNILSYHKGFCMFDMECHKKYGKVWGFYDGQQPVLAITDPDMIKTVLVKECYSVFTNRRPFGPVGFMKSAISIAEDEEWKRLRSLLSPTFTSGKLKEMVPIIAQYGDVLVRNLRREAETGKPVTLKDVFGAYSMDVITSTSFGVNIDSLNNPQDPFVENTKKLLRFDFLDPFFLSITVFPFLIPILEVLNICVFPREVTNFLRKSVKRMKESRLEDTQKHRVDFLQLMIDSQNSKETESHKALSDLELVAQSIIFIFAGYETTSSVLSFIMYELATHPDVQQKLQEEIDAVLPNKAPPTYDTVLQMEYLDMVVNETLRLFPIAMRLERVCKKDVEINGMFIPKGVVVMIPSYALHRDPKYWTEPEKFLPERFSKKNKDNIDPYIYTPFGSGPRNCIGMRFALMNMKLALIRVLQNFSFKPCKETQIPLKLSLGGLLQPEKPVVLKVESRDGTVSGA

[3] = assay type: in vivo, BALB/c mice; settings: for Cmax / time to reach peak plasma concentration: plasma, label = analyte measured
Acute oral toxicity = assay type: in vivo, Sprague-Dawley (SD) rats
PC-3 cells [4] = assay: MTT cell proliferation assay; assay type: cell-based, human; settings: pH 7.4
PC-3 cells [5] = assay: Clonogenic; assay type: cell-based, human; settings: 2 mg/ml, PC-3, pH 7.4
[6] = tested on: PC-3, DU145 and C42B cells; assay: MTT cell survival, prostate cancer lines; assay type: cell-based, human; settings: 0.5 mg/ml, 48h, pH 7.4; range over PC-3, DU145 and C42B
RWPE-1 cells = assay: MTT cell survival, near-normal prostate cells; assay type: cell-based; settings: 0.5 mg/ml, 48h, pH 7.4, RWPE-1
MDA-MB-468 = assay: MTT cell proliferation assay; assay type: cell-based; settings: MDA-MB-468 (breast)
OVCAR-3 = assay: MTT cell proliferation assay; assay type: cell-based; settings: OVCAR-3 (ovary)
CFPAC = assay: MTT cell proliferation assay; assay type: cell-based; settings: CFPAC (pancreas)
PC-3 cells [7] = assay: Intracellular levels of PhosE and Etn by LC-MS/MS; assay type: cell-based, human; settings: PC-3, 1 mg/ml treatment, 48h, pH 7.4
PC-3-luc xenografts = assay: PC-3-luc prostate cancer xenograft tumor growth; assay type: in vivo, athymic male BALB/c mice
DU145 xenografts = assay: DU145 prostate cancer xenograft tumor growth; assay type: in vivo, athymic male BALB/c mice
HCT116 xenograft = assay: HCT116 colon cancer xenograft tumor growth; assay type: in vivo, mice; settings: 2 weeks
CK KD PC-3 cells = assay: MTT cell survival in choline kinase knockdown cells; assay type: cell-based, human; settings: 0.5 mg/ml, CK KD (siRNA) PC-3 cells, 48h
PC-3 cells [8] = assay: Annexin-V flow cytometry; assay type: cell-based, human; settings: control ~8%
p53 transcript = assay: RT-PCR transcript levels; assay type: cell-based, human; settings: PC-3, 2 mg/ml, 48h
HIF1-α transcripts = assay: RT-PCR transcript levels; assay type: cell-based, human; settings: PC-3, 2 mg/ml, 48h
Ki67 = Ki67 immunohistochemistry of tumor sections; assay type: in vivo, athymic male BALB/c mice; settings: PC-3-luc xenografts, 40 mg/kg; control tumors ~62%
PC-3 cells [9] = assay: Oxygen consumption rate; assay type: cell-based, human; settings: PC-3, 2 mg/ml, 48h, 1 million cells/ml
PC-3-luc tumors = assay: Glucose and glutamine levels in tumors by LC-MS/MS; assay type: in vivo, athymic male BALB/c mice; settings: 40 mg/kg Etn-treated PC-3-luc tumors
PC-3 cells [10] = assay: Intracellular glucose and glutamine levels in cultured cells; assay type: cell-based, human; settings: PC-3, 2 mg/ml, 48h
HIF1-α = HIF1-α protein expression in tumors; assay type: in vivo, athymic male BALB/c mice; settings: PC-3-luc xenografts, Etn-treated
[11] = Etn absorption from formulations of different pH/acid; assay type: in vivo; settings: pH 5/7.4; H3PO4/HCl/H2SO4
[12] = Blood to plasma concentration ratio; assay type: in vitro ADME; settings: BALB/c mice blood
[13] = assay type: in vivo, BALB/c mice
[14] = tested on: cancer cells of varying tissue-origin; assay: Proliferation and colony formation, cancer cells of varying tissue-origin; assay type: cell-based
[15] = 40 mg/kg oral gavage, pH 5, 4 weeks
[16] = after 4 weeks of 40 mg/kg oral Etn

CYP1A2, sequence (P05177 whole entry): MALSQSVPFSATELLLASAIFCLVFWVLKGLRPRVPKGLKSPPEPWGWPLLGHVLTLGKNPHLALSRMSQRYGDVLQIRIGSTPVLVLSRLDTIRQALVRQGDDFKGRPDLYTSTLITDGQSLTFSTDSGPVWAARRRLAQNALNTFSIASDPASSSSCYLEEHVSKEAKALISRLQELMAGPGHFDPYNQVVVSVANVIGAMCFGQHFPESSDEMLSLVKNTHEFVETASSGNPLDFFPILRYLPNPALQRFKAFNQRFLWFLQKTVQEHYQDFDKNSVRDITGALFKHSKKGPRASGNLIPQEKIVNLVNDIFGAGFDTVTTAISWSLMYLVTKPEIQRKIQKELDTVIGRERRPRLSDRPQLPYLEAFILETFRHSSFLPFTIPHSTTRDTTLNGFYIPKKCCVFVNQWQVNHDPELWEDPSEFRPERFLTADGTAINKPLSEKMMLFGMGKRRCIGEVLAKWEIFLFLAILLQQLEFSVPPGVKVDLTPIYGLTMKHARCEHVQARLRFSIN

## NCCO [Etn, monoethanolamine]
[1]
  stability in SGF: stable
[2]; SIF pH 6.8, over time (0-120 min), LC-MS/MS
  stability in SIF: remained unchanged
CYP1A2; read-out: IC50 CYP1A2
  IC50: > 100 µM
CYP2A6
  IC50: > 100 µM
CYP2B6
  IC50: > 100 µM
CYP2C8
  IC50: > 100 µM
CYP2C9
  IC50: > 100 µM
CYP2C19
  IC50: > 100 µM
CYP2D6
  IC50: > 100 µM
CYP2E1
  IC50: > 100 µM
CYP3A4
  IC50: > 100 µM
[3]; after oral Etn 40 mg/kg
  Cmax of Etn relative to Cmax of PhosE: 32 fold
  Cmax: 17370 ng/mL
  time to reach peak plasma concentration: 10 min
[3]; after oral PhosE 60 mg/kg
  Cmax: 4320 ng/mL
Acute oral toxicity; single oral dose 5 g/kg (limit dose), male and female rats, monitored one week
  acute toxicity: does not induce any acute toxicity
Acute oral toxicity; single oral dose 5 g/kg, five male and five female rats
  survival after one week: all rats were alive
PC-3 cells [4]; 0.5 mg/ml, PC-3, 48h
  reduction of cell survival: ~ 38%
PC-3 cells [4]; 1 mg/ml Etn alone, PC-3, 48h
  reduction in cell proliferation: ~ 33%
PC-3 cells [4]; PC-3, MTT, 48h
  half-maximal concentration (IC50), cell proliferation: ~ 0.88 mg/ml
PC-3 cells [5]
  decrease in colony numbers: ~ 97%
[6]
  reduction of cell survival: 30–52%
RWPE-1 cells
  effect on cell survival: unaffected
MDA-MB-468
  IC50, cell proliferation: 550 µg/mL (≈ 9 mM)
OVCAR-3
  IC50, cell proliferation: 290 µg/mL (≈ 4.75 mM)
CFPAC
  IC50, cell proliferation: 1900 µg/mL (≈ 31.1 mM)
PC-3 cells [7]
  increase of intracellular PhosE levels relative to control cells: ~ 40 fold
PC-3-luc xenografts; 40 mg/kg oral gavage, pH 5 (phosphoric acid), 4 weeks
  reduction in tumor volume: ~ 67%
PC-3-luc xenografts; [15]
  reduction in tumor weight: ~ 55%
PC-3-luc xenografts; 40 mg/kg oral, 4 weeks, PC-3-luc tumor bearing mice
  change in body weight over treatment course: no apparent change in body weight
PC-3-luc xenografts; [16]
  change in intratumoral Etn levels versus control mice: did not observe any significant change
  intratumoral PhosE level, increase over control mice: ~ 38%
DU145 xenografts; [15]
  reduction in tumor volume: ~ 42%
  reduction in tumor weight: ~ 29%
DU145 xenografts; 40 mg/kg oral, 4 weeks, DU145 tumor bearing mice
  change in body weight over treatment course: no apparent change in body weight
HCT116 xenograft; 40 mg/kg oral gavage
  decrease in tumor volume: ~ 44%
HCT116 xenograft; 40 mg/kg oral, HCT116 tumor bearing mice
  change in body weight over treatment course: no apparent change in body weight
CK KD PC-3 cells
  decrease in cell viability: ~ 11%
PC-3 cells [8]
  Annexin-V positive cells upon treatment: ~ 25%
p53 transcript
  increase in p53 transcript levels compared to controls: 1.2 fold
HIF1-α transcripts
  reduction in HIF1-α transcripts levels compared to control cells: 50 fold
Ki67
  Ki67-positive cells in treated tumors: ~ 40%
PC-3 cells [9]
  reduction of OCR compared to controls: ~ 26%
PC-3-luc tumors
  glucose content in tumors versus control: significantly reduced
  glutamine content in tumors versus control: significantly reduced
PC-3 cells [10]
  glucose content in cells versus control: significantly reduced
  glutamine content in cells versus control: significantly reduced
HIF1-α
  HIF1-α protein expression in treated versus control tumors: downregulation
[11]
  dependence of absorption on formulation pH or acid: independent of pH

## NCCOP(=O)(O)O [PhosE, phosphoethanolamine]
[1]
  stability in SGF: stable
[2]; SIF pH 6.8, after 2h
  decrease in concentration in SIF: ~ 35%
CYP1A2
  IC50: > 100 µM
CYP2A6
  IC50: > 100 µM
CYP2B6
  IC50: > 100 µM
CYP2C8
  IC50: > 100 µM
CYP2C9
  IC50: > 100 µM
CYP2C19
  IC50: > 100 µM
CYP2D6
  IC50: > 100 µM
CYP2E1
  IC50: > 100 µM
CYP3A4
  IC50: > 100 µM
[12]
  partitioning into RBCs (blood to plasma concentration ratio): lack of preferential partitioning into RBCs
[3]; after oral Etn 40 mg/kg
  Cmax: 550 ng/mL
  time to reach peak plasma concentration: 10 min
[3]; after oral PhosE 60 mg/kg
  Cmax: 1140 ng/mL
[3]; oral Etn 40 mg/kg, PhosE 60 mg/kg vs intravenous 2 and 3 mg/kg
  oral bioavailability: 19%
[13]; intravenous PhosE 3 mg/kg
  volume of distribution (Vd): 4.82 L/kg
[13]; intravenous, Etn 2 mg/kg, PhosE 3 mg/kg
  clearance (CL): 101.92 mL/min/kg
PC-3 cells [5]
  effect on colony numbers compared to control cells: ineffective
[14]
  inhibition of proliferation and colony formation: ineffective
PC-3 cells [7]
  increase of intracellular PhosE levels relative to control cells: ~ 15 fold

Reference: PMC5837865 (Clinical cancer research : an official journal of the …, 2017)
